Here are results for 25 molecules from patent US9518022B2, “Anti-HIV compounds” (priority 2014, dated 2016).

The term EC50 denotes the midpoint of the concentration-response curve. Usually CC50 stands for the concentration giving 50% cytotoxicity.

The first data set relates to HIV-1 NL4-3 viral clone engineered to express Renilla luciferase in place of Nef. Kind of data set: microbe, parasite or virus in culture. It is filed as cell-based. The settings on record: Human immunodeficiency virus 1, NL43, MT2, 96 h. On the procedure: The present assay was used to screen candidate antiviral compounds by quantification of virus spread and production over several rounds of infection in vitro. MT-2, a HIV-1 permissive human T-cell line, was seeded in microtiter plates and was simultaneously treated with serially diluted compound and inoculated with a HIV-1 NL4-3 viral clone engineered to express Renilla luciferase in place of Nef. Following treatment, the culture was incubated for 96 hours. After the incubation, media was collected and used to estimate relative infectivity on the indicator cell line, TZM-bl. Additionally, viral spread was quantified by measuring luciferase activity via a commercially available luciferase substrate. In parallel, MT-2 cells were seeded and inoculated with mock virus in the presence of serially diluted compound. Compound toxicity was quantified 96 hours after treatment with AlamarBlue.
MT-2 (NIH Aids reagent program 237) cells were grown and maintained in an incubator at 37° C. with 5% CO2 using a basal medium of RPMI-1640 supplemented with 10% FBS. Cells were seeded in 100 μl at 2×10^4 cells/well in white walled 96-well microtiter plates. Candidate compounds were 3-fold serially diluted in the appropriate solvent. Solvent without compound was used as a no drug reference. Cells were inoculated at a multiplicity of 0.027 with an HIV-1 NL4-3 virus stock engineered to express Renilla luciferase in place of Nef. Diluted virus stock was first added to serially diluted compound. Compound and virus were delivered to cells in an equal volume (100 μl) and treated cultures were returned to the incubator for 96 hours. In parallel, plates for cytotoxicity estimates were prepared in the same way except cells were plated in clear walled 96-well microtiter plates and were mock infected.
At 96 hours post infection, 100 μl virus containing culture supernatant was collected from the treated and infected cultures and serially diluted in DMEM supplemented with 10% FBS, 1% sodium pyruvate, and 20 μg/ml DEAE dextran. One day prior, TZM-bl (ATCC PTA-5659) were cultured in basal medium of DMEM supplemented with 10% FBS and 1% sodium pyruvate and seeded at 7.5×10^3 cells/well in black walled 96-well microtiter plates. Diluted virus containing culture supernatant was transferred to TZM-bl cultures and incubated for 48 hours at 37° C. with 5% CO2. Infected TZM-bl cultures were fixed for 5 minutes with a 1% formaldehyde/0.2% gluteraldehyde/PBS solution then washed three times with PBS. Fixed cultures were incubated at 37° C. for 25 minutes with a 200 μg/ml MUG (4-Methylumbelliferyl β-D-[…])/DMEM solution. The reaction was stopped with an equal volume of 1M sodium carbonate and read at 360, 449 nm on fluorescence plate reader (Biotek).
At 96 hours post infection, 100 μl of culture supernatant was removed from the treated and infected cultures and EnduRen live cell substrate (Promega) was added at a final concentration 1.3 μg/ml. Cells were incubated for 1.5 hours at 37° C. with 5% CO2 then read on a luminescence plate reader (Biotek).
For all assays, data was imported into Accelrys Assay Explorer 3.3. In Assay Explorer, % inhibition (antiviral or cytotoxicity) was calculated using the solvent control as a reference by the following equation: 1−(SignalCompound/SignalReference). The % Inhibition and compound concentration data was fitted using the following 4-parameter logistic model (Assay Explorer model 42):
[formula] where X is compound concentration, Y is % inhibition, D is the maximum % Inhibition (constrained to 100%), C is IC50 value or inflection point, B is the hill slope, and A is the minimum % inhibition (constrained to 0%). The IC50 value is reported as the EC50 or CC50 depending on the assay endpoint. EC50 represents the effective concentration at which virus replication is inhibited by 50 percent. CC50 represents the concentration that results in the death of 50 percent of the host cells. […]
As to `COc1cc2c(cc1OCc1ccccc1)CCNC2/C=C/c1cccc2ccn(C(=O)OC(C)(C)C)c12` (centres unmarked) [CN, tert-butyl 7-[(E)-2-[6-(benzyloxy)-7-methoxy-1,2,3,4-tetrahydroisoquinolin-1-yl]ethenyl]-1H-indole-1-carboxylate], a half-maximal effect (EC50) was put at 1830 nM.

Test system in another data set: not listed separately
Nature of the data set: Cytotoxicity assay (AlamarBlue) in mock infected MT-2 cells. Particulars: human. It counts as cell-based. The essentials:
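MT-2 cells at 2×10^4 cells/well, mock-infected, treated with 3-fold serial compound dilutions for 96 h at 37 °C. AlamarBlue added for 3 h, fluorescence read at 545/590 nm; % inhibition versus solvent control fitted to a 4-parameter logistic to give CC50.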
A general note: The colour change of resazurin is a common sign of viable cells or microbes.
As to `COc1cc2c(cc1OCc1ccccc1)CCNC2/C=C/c1cccc2ccn(C(=O)OC(C)(C)C)c12` (centres unmarked) [CN, tert-butyl 7-[(E)-2-[6-(benzyloxy)-7-methoxy-1,2,3,4-tetrahydroisoquinolin-1-yl]ethenyl]-1H-indole-1-carboxylate], the CC50 at 96 h stood at 19.6 µM.

Take `COc1cc2c(cc1OCc1ccccc1)CCNC2/C=C/c1ccc(-c2ccccn2)cc1` (centres unmarked) [DZ, 6-(benzyloxy)-7-methoxy-1-[(E)-2-[4-(pyridin-2-yl)phenyl]ethenyl]-1,2,3,4-tetrahydroisoquinoline]: half-maximal cytotoxicity (CC50 at 96 h) was put at 5.8 µM.

The molecule `COc1cc2c(cc1OCc1ccccc1)CCNC2/C=C/c1cc(OC(F)(F)F)ccc1C` (centres unmarked) [BH, 6-(benzyloxy)-7-methoxy-1-[(E)-2-[2-methyl-5-(trifluoromethoxy)phenyl]ethenyl]-1,2,3,4-tetrahydroisoquinoline] returned a CC50 at 96 h of 5.3 µM.

In turn, `COc1cc2c(cc1OCc1ccccc1)CCNC2/C=C/c1cccc(C(=O)O)c1` (centres unmarked) [ER, 3-[(E)-2-[6-(benzyloxy)-7-methoxy-1,2,3,4-tetrahydroisoquinolin-1-yl]ethenyl]benzoic acid] yielded a CC50 at 96 h of 10 µM.

With `COc1cc(C)c(/C=C/C2c3cc(OC)c(OCc4ccccc4)cc3CCN2C)cc1OCc1ccccc1` (centres unmarked) [Example E, 6-Benzyloxy-1-[(E)-2-(5-benzyloxy-4-methoxy-2-methyl-phenyl)vinyl]-7-methoxy-2-methyl-3,4-dihydro-1H-isoquinoline], it took 7.17 µM to reach half-maximal cytotoxicity (CC50 at 96 h).

As to `COc1cc2c(cc1OCc1ccccc1)CCNC2/C=C/c1ccc(-c2ncco2)cc1` (centres unmarked) [ED, 6-(benzyloxy)-7-methoxy-1-[(E)-2-[4-(1,3-oxazol-2-yl)phenyl]ethenyl]-1,2,3,4-tetrahydroisoquinoline], the CC50 at 96 h is 7.5 µM.

On to `COc1cc(F)c(/C=C/C2NCCc3cc(OCc4ccccc4)c(OC)cc32)cc1OC` (centres unmarked) [BP, 6-(benzyloxy)-1-[(E)-2-(2-fluoro-4,5-dimethoxyphenyl)ethenyl]-7-methoxy-1,2,3,4-tetrahydroisoquinoline], for which the midpoint of cytotoxicity, the CC50 at 96 h, lay at 5.61 µM.

With `COc1cc(C)c(/C=C/C2NCCc3cc(OCc4ccccc4)c(OC)cc32)cc1OC` (centres unmarked) [Example AH, 6-benzyloxy-1-[(E)-2-(4,5-dimethoxy-2-methyl-phenyl)vinyl]-7-methoxy-1,2,3,4-tetrahydroisoquinoline], the midpoint of cytotoxicity, the CC50 at 96 h, lay at 2.4 µM.

As for `COc1cc(C)c(CCC2NCCc3cc(OCc4ccccc4)c(OC)cc32)cc1OCc1ccccc1` (centres unmarked) [Example Q, 6-benzyloxy-1-[2-(5-benzyloxy-4-methoxy-2-methyl-phenyl)ethyl]-7-methoxy-1,2,3,4-tetrahydroisoquinoline], the CC50 at 96 h is 5.15 µM.

`COc1cc(C)c(/C=C/C2NCCc3cc(OCc4ccccc4)c(OC)cc32)cc1OCCCC(=O)O` (centres unmarked) [BO, 4-{5-[(E)-2-[6-(benzyloxy)-7-methoxy-1,2,3,4-tetrahydroisoquinolin-1-yl]ethenyl]-2-methoxy-4-methylphenoxy}butanoic acid] had a 50% cytotoxic concentration (CC50) at 96 h of 8.96 µM.

As to `COc1cc2c(cc1OCc1ccccc1)CCNC2/C=C/c1ccc(-c2cncnc2)cc1` (centres unmarked) [DS, 6-(benzyloxy)-7-methoxy-1-[(E)-2-[4-(pyrimidin-5-yl)phenyl]ethenyl]-1,2,3,4-tetrahydroisoquinoline], the CC50 at 96 h was determined as 7.39 µM.

For `COc1cc(C)c(/C=C/C2NCCc3cc(OCc4ccccc4)c(OC)cc32)cc1OCc1ccccc1` (centres unmarked) [AF, 6-benzyloxy-1-[(E)-2-(5-benzyloxy-4-methoxy-2-methyl-phenyl)vinyl]-7-methoxy-1,2,3,4-tetrahydroisoquinoline], half-maximal cytotoxicity (CC50 at 96 h) was put at 3.87 µM.

As to `COc1cc2c(cc1OCc1ccccc1)CCNC2/C=C/c1cccc(-c2ncco2)c1` (centres unmarked) [EC, 6-(benzyloxy)-7-methoxy-1-[(E)-2-[3-(1,3-oxazol-2-yl)phenyl]ethenyl]-1,2,3,4-tetrahydroisoquinoline], it took 7.5 µM to reach half-maximal cytotoxicity (CC50 at 96 h).

In turn, `COc1cc2c(cc1OCc1ccccc1)CCNC2/C=C/c1cn(C)c2ncccc12` (centres unmarked) [DP, 6-(benzyloxy)-7-methoxy-1-[(E)-2-{1-methyl-1H-pyrrolo[2,3-b]pyridin-3-yl}ethenyl]-1,2,3,4-tetrahydroisoquinoline] gave a CC50 at 96 h of 1.3 µM.

On to `COc1cc2c(cc1OCc1ccccc1)CCNC2c1ccccc1CNC(=O)OC(C)(C)C` (centres unmarked) [AZ, tert-butyl N-({2-[6-(benzyloxy)-7-methoxy-1,2,3,4-tetrahydroisoquinolin-1-yl]phenyl}methyl)carbamate], for which the 50% cytotoxic concentration (CC50) at 96 h amounted to 9.48 µM.

Molecule `COc1cc(Cl)c(/C=C/C2NCCc3cc(OCc4ccccc4)c(OC)cc32)cc1OCc1ccccc1` (centres unmarked) [Example AC, 6-benzyloxy-1-[(E)-2-(5-benzyloxy-2-chloro-4-methoxy-phenyl)vinyl]-7-methoxy-1,2,3,4-tetrahydroisoquinoline] showed a CC50 at 96 h of 1.9 µM.

In the case of `COc1cc2c(cc1OC)C(/C=C/c1cc(OCc3ccccc3)c(OC)cc1C)NCC2` (centres unmarked) [Example C, 1-[(E)-2-(5-Benzyloxy-4-methoxy-2-methyl-phenyl)vinyl]-6,7-dimethoxy-1,2,3,4-tetrahydroisoquinoline], the CC50 at 96 h was 11 µM.

As for `COc1cc2c(cc1OCc1ccccc1)CCNC2/C=C/c1cn(C(=O)OC(C)(C)C)c2ccccc12` (centres unmarked) [CI, tert-butyl 3-[(E)-2-[6-(benzyloxy)-7-methoxy-1,2,3,4-tetrahydroisoquinolin-1-yl]ethenyl]-1H-indole-1-carboxylate], the CC50 at 96 h amounted to 4.98 µM.

`COc1cc2c(cc1OCc1ccccc1)CCNC2/C=C/c1ccc(-n2ccnc2)cc1` (centres unmarked) [DK, 6-(benzyloxy)-1-[(E)-2-[4-(1H-imidazol-1-yl)phenyl]ethenyl]-7-methoxy-1,2,3,4-tetrahydroisoquinoline] displayed a CC50 at 96 h of 9.13 µM.

The molecule `COc1cc2c(cc1OCc1ccccc1)CCNC2/C=C/c1cc(C(C)C)c(OC)cc1C` (centres unmarked) [BW, 6-(benzyloxy)-7-methoxy-1-[(E)-2-[4-methoxy-2-methyl-5-(propan-2-yl)phenyl]ethenyl]-1,2,3,4-tetrahydroisoquinoline] gave a 50% cytotoxic concentration (CC50) at 96 h of 1.88 µM.

Regarding `COc1cc2c(cc1OCc1ccccc1)CCNC2/C=C/c1ccc(OC(F)(F)F)cc1C` (centres unmarked) [Example AJ, (E)-6-(benzyloxy)-7-methoxy-1-(2-methyl-4-(trifluoromethoxy)styryl)-1,2,3,4-tetrahydroisoquinoline], the midpoint of cytotoxicity, the CC50 at 96 h, lay at 5 µM.

Take `COc1cc2c(cc1OCc1ccccc1)CCNC2c1cc(OCc2ccccc2)c(OC)cc1C` (centres unmarked) [AY, 6-(benzyloxy)-1-[5-(benzyloxy)-4-methoxy-2-methylphenyl]-7-methoxy-1,2,3,4-tetrahydroisoquinoline]: the CC50 at 96 h worked out at 5.14 µM.

With `COc1cc2c(cc1OCc1ccccc1)CCNC2/C=C/c1cc2ccccc2n1C(=O)OC(C)(C)C` (centres unmarked) [CH, tert-butyl 2-[(E)-2-[6-(benzyloxy)-7-methoxy-1,2,3,4-tetrahydroisoquinolin-1-yl]ethenyl]-1H-indole-1-carboxylate], the CC50 at 96 h stood at 3.48 µM.

`COc1ccc(CCC2NCCc3cc(OC)c(OC)cc32)cc1OC` (centres unmarked) [Example A, 1-[2-(3,4-Dimethoxyphenyl)ethyl]-6,7-dimethoxy-1,2,3,4-tetrahydroisoquinoline] showed a CC50 at 96 h greater than 10 µM.

The same data set, now with this note: human; mock infected MT-2 cells, 96 hours, AlamarBlue; read-out: CC50.
Turning to `COc1cc2c(cc1OCc1ccccc1)CCNC2/C=C/c1ccc(F)cc1C` (centres unmarked) [Example X, 6-benzyloxy-1-[(E)-2-(4-fluoro-2-methyl-phenyl)vinyl]-7-methoxy-1,2,3,4-tetrahydroisoquinoline], the cytotoxic concentration (CC50) at 96 h was found to be 5.3 µM.
